Source: PMC7269481, “ZN148 Is a Modular Synthetic Metallo-β-Lactamase Inhibitor That Reverses Carbapenem Resistance in Gram-Negative Pathogens In Vivo” (Antimicrobial Agents and Chemotherapy, 2020)

What was measured:
E. coli with VIM (n=7) = assay: Meropenem MIC distribution, E. coli with VIM; format: cell-based; settings: MEM alone or +50 µM ZN148
Method: (§1) MICs of carbapenems alone and in combination with inhibitors were determined by broth microdilution according to the Clinical and Laboratory Standards Institute (CLSI) guidelines ([48]) using either premade plates (TREK Diagnostic Systems/Thermo Fisher Scientific, East Grinstead, United Kingdom) with meropenem or in-house-prepared plates with meropenem, imipenem, and doripenem. ZN148 and other inhibitors were tested at a fixed concentration of 50 μM. Cation-adjusted Mueller-Hinton medium (TREK Diagnostic Systems/Thermo Fisher Scientific; Becton Dickinson, Franklin Lakes, NJ) were used as growth medium. The plates were incubated for 20 h at 37°C. ZN148, ZN222, ZN223, ZN228, and TPA were initially tested in combination with meropenem using two indicator strains: NDM-1-producing K. pneumoniae ([49], [50]) and VIM-2-producing P. aeruginosa ([51]). The activity of ZN148 were subsequently tested against two extended strain collections: (i) in combination with meropenem against MBL-producing Enterobacterales (n = 62), MBL-producing P. aeruginosa (n = 9) and MBL- and class D carbapenemase-coproducing Enterobacterales (n = 5) from the strain collection at the Norwegian National Advisory Unit on Detection of Antimicrobial Resistance and (ii) in combination with meropenem, imipenem, and doripenem against globally collected MBL-producing E. coli (n = 87), K. pneumoniae (n = 85), P. aeruginosa (n = 52), and A. baumannii (n = 6), MBL- and class A/D carbapenemase-coproducing E. coli (n = 11), K. pneumoniae (n = 15) and A. baumannii (n = 7) at IHMA Europe, Sàrl, Switzerland. E. coli ATCC 25922 and P. aeruginosa ATCC 27853 were used as quality control strains. The MBL inhibitors were also tested for intrinsic antibacterial activity against the strains.

E. coli with NDM (n=102) = assay: Meropenem MIC distribution, E. coli with NDM; format: cell-based; settings: MEM alone or +50 µM ZN148
Method: as §1

[1] = tested on: A. baumannii co-producing MBLs and class A/D serine carbapenemases; assay: Carbapenem MIC, A. baumannii co-producing NDM-1 and class D carbapenemases; format: cell-based; settings: carbapenem alone or with 50µM ZN148, one value per strain
Method: as §1

VIM-2 [2] = biological target: T1, VIM-2 (Escherichia coli, UniProt Q5U7L7); format: biochemical
T1 construct: made in house
Method: For reversibility of enzyme activity after incubation with ZN148, 3 ml of VIM-2 or NDM-1 was diluted with or without ZN148 in Chelex HEPES buffer (pH 7.5) and subsequently incubated for 1 h on ice. Then, 2.5 ml of each solution was loaded onto an equilibrated PD-10 column (GE Healthcare, Pittsburgh, PA), washed with 1 ml, and eluted with 1.5 ml of Chelex HEPES buffer (pH 7.5), respectively. Samples spiked and not spiked with inhibitor were diluted to a final enzyme concentration of 1 nM VIM-2 and 3 nM NDM-1. The initial reaction velocity was determined by adding nitrocefin (Merck) for VIM-2 or imipenem (Sigma-Aldrich) for NDM-1 at final concentrations of 50 and 100 μM, respectively. The initial enzyme reactions were recorded at 25°C. Inhibitor and enzyme alone were included as controls. All measurements were performed at least in duplicates. For enzyme restorability, pre- and postcolumn samples were supplemented with ZnSO4 (Sigma-Aldrich) to a final concentration of 100 μM and allowed to incubate for 5 min at 25°C. The initial enzyme velocity was then determined as described above.

VIM-2 [3] = biological target: T1, VIM-2; assay: Zinc content determination by ICP-MS, VIM-2; format: biochemical; settings: ICP-MS after preincubation
Method: Inductively coupled plasma mass spectrometry (ICP-MS) was used to investigate the chelating property of ZN148 by measuring the zinc concentration (Zn^66) after incubation of VIM-2 with or without ZN148 in zinc depleted 50 mM HEPES buffer (pH 7.5; Chelex HEPES buffer). The Chelex buffer was prepared by stirring 2 g of Chelex resin (Bio-Rad, Hercules, CA) in 100 ml of 50 mM HEPES buffer (pH 7.5). The resin was subsequently removed by sterile filtration (Merck Millipore, 0.22 μm). VIM-2 (10 g/liter) was diluted to 12.5 mg/liter and mixed with ZN148 at different final concentrations (0, 12.5, 125, and 1250 μM) in Chelex HEPES buffer. All solutions were allowed to incubate for 30 min on ice and subsequently concentrated by centrifugation (at 4,000 × g, 4°C for 25 min) to a volume of 250 μl using centrifugal molecular cutoff filters (Merck Millipore, 10,000 Da). […] Per inhibitor concentration, at least three biological replicates were performed and injected and measured in triplicates. For the MS analysis the kinetic energy discrimination mode with a helium flow rate of 5.7 ml/min, 20 sweeps per reading, and a dwell time of 100 ms/atomic mass unit (AMU) for Zn^66 and 50 ms/AMU for Rh^103 were applied. […] The zinc concentration within the samples was determined based on an external calibration curve (0, 290, 580, 1,160, and 2,320 μg/liter). […]

SMILES	No. of strains with indicated MIC (E. coli with VIM (n=7); MIC 0.5 mg/L)	No. of strains with indicated MIC (E. coli with VIM (n=7); MIC 8 mg/L)	No. of strains with indicated MIC (E. coli with VIM (n=7); MIC 16 mg/L)	No. of strains with indicated MIC (E. coli with VIM (n=7); MIC 32 mg/L)	No. of strains with indicated MIC (E. coli with NDM (n=102); MIC 1 mg/L)	No. of strains with indicated MIC (E. coli with NDM (n=102); MIC 4 mg/L)	No. of strains with indicated MIC (E. coli with NDM (n=102); MIC 8 mg/L)	No. of strains with indicated MIC (E. coli with NDM (n=102); MIC 16 mg/L)	No. of strains with indicated MIC (E. coli with NDM (n=102); MIC 32 mg/L)	No. of strains with indicated MIC (E. coli with NDM (n=102); MIC ≥64 mg/L)	MIC ([1]; NDM-1 + OXA-23-like strains)	MIC ([1]; NDM-1 + OXA-24-like, OXA-58-like strains)	mode of inhibition (VIM-2 [2])	MBL activity restored by addition of exogenous zinc, compared to untreated control (VIM-2 [2]; after incubation with inhibitor and its removal (PD-10), 100 μM ZnSO4)	zinc removed from enzyme (VIM-2 [3])
C[C@@H](O)[C@H]1C(=O)N2C(C(=O)O)=C(S[C@@H]3CN[C@H](C(=O)N(C)C)C3)[C@H](C)[C@H]12 [meropenem]	1	3	2	1	2	6	2	8	19	65	> 64 µg/mL	> 64 µg/mL			
CN(C[C@H](O)[C@@H](O)[C@H](O)[C@H](O)CO)C(=O)c1ccc(CN(Cc2ccccn2)Cc2ccccn2)nc1 [ZN148]													irreversible	~30%	~1.8 molar equivalents
